Calls of active or inactive are those of the source. The calls are words filed in the database; no cut-off is given here.
Assays:
[1] = biological target: Glycogen synthase kinase-3 beta (Homo sapiens, UniProt P49841); experiment: Inhibition of human recombinant GSK3-beta using prephosphorylated polypeptide as substrate incubated for 30 mins by Glo-type luminescence assay
[2] = Permeability of the compound by PAMPA-BBB assay; type: ADME; conditions: read-out: permeability
Beta-secretase 1 = Beta-secretase 1 (Homo sapiens, UniProt P56817); experiment: Inhibition of human recombinant BACE1 using M-2420 as substrate preincubated for 1 hr followed by substrate addition incubated for 15 mins by FRET assay
Beta-secretase 1, sequence (P56817 whole entry): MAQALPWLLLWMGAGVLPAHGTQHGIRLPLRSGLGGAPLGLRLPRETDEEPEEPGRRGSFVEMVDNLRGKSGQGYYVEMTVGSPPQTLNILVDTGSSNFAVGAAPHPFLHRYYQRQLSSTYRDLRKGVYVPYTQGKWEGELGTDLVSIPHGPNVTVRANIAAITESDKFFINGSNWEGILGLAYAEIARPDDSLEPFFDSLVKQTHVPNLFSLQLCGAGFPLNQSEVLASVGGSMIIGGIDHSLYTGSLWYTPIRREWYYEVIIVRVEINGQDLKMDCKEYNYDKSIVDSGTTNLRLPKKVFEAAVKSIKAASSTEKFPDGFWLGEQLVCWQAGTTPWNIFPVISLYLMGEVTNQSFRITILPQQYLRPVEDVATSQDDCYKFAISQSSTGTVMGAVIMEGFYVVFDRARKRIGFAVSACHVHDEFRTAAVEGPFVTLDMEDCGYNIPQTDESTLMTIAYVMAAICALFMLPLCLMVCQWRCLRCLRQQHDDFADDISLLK

T67 [3] = experiment: Neuroprotective effect in human T67 cells assessed as inhibition of TBH-induced ROS formation at 10 uM after 30 mins by DCFH-DA fluorescent probe-based spectrofluorimetric analysis; type: functional, cell-based
[4] = Cytotoxicity against human T67 cells at 10 uM after 24 hrs by MTT assay; type: cell-based; conditions: t67, 24 h
[5] = Chemical stability of the compound in phosphate and borate buffer at pH 7.4 and 9.2 incubated for 3 days by RP-HPLC analysis; type: physicochemical; conditions: pH 7.4, 72 h
T67 [6] = experiment: Neuroprotective effect in human T67 cells assessed as increase in NQO1 activity using DCIP as substrate; type: functional, cell-based
[7] = Cytotoxicity against human T67 cells up to 20 uM after 24 hrs by MTT assay; type: cell-based; conditions: t67, 24 h
[8] = Chemical stability of the compound in phosphate and borate buffer assessed as formation of degradation product at pH 7.4 and 9.2 incubated for 3 days by RP-HPLC analysis; type: physicochemical; conditions: pH 7.4, 72 h
[9] = Cytotoxicity against human T67 cells at 20 uM after 24 hrs by MTT assay; type: cell-based; conditions: t67, 24 h

Glycogen synthase kinase-3 beta, sequence (P49841 whole entry): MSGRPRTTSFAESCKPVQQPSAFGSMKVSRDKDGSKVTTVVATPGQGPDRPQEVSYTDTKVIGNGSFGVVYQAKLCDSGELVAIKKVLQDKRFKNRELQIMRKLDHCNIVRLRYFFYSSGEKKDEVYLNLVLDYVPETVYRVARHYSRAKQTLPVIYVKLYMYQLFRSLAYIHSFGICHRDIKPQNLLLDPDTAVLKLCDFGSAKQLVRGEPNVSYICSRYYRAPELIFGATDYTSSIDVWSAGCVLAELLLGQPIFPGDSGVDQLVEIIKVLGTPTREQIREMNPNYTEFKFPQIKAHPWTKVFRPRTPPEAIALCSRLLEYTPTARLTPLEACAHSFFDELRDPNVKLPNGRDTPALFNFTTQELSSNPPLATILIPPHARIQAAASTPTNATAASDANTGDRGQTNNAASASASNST

Compound	IC50 [1]	Papp [2]	IC50 (Beta-secretase 1)	Stability [5]	Stability [8]	Activity (T67 [3])	Activity [4]	Activity (T67 [6])	Activity [7]	Activity [9]
COc1ccc(/C=C/C(=O)CC(=O)/C=C/c2ccc(OC)cc2)cc1	15.3 µM	–	> 5000 nM	–	Unstable	–	–	–	–	–
O=C(/C=C(O)/C=C/c1ccc(OCc2cccc(F)c2)cc1)/C=C/c1ccc(OCc2cccc(F)c2)cc1	17 µM	–	1080 nM	–	–	–	–	–	–	–
O=C(/C=C/c1ccc(OCc2cc(F)cc(F)c2)cc1)CC(=O)/C=C/c1ccc(OCc2cc(F)cc(F)c2)cc1	9.66 µM	–	730 nM	–	–	–	–	–	–	–
O=C(/C=C/c1ccc(OCc2ccc(F)cc2F)cc1)CC(=O)/C=C/c1ccc(OCc2ccc(F)cc2F)cc1	9.06 µM	–	1000 nM	–	–	–	–	–	–	–
O=C(/C=C(O)/C=C/c1ccc(OCc2ccc(F)cc2F)cc1)/C=C/c1ccc(OCc2ccc(F)cc2F)cc1	9.63 µM	–	400 nM	–	–	–	–	–	–	–
O=C(/C=C(O)/C=C/c1ccc(O)cc1)/C=C/c1ccc(O)cc1	8.39 µM	7.8 ×10⁻⁶ cm/s	–	–	–	inactive	Non-toxic	Active	–	Toxic
COc1cc(/C=C/C(=O)CC(=O)/C=C/c2ccc(O)c(OC)c2)ccc1O [CURCUMIN]	17.9 µM	2.5 ×10⁻⁶ cm/s	–	–	–	–	–	Active	Non-toxic	–
O=C(/C=C(O)/C=C/c1ccc(OCc2ccc(F)cc2)cc1)/C=C/c1ccc(OCc2ccc(F)cc2)cc1	12.8 µM	–	1040 nM	–	–	–	–	–	–	–

More lines, main results first:

IC50 [1]	Papp [2]	IC50 (Beta-secretase 1)	Stability [5]	Stability [8]	Compound	Activity (T67 [3])	Activity [4]	Activity (T67 [6])	Activity [7]	Activity [9]
0.53 µM	2.8 ×10⁻⁶ cm/s	1650 nM	Stable	–	COc1ccc(/C=C/C(=O)/C=C(O)/C=C/c2ccc(OC)cc2)cc1	inactive	Non-toxic	Active	–	–
2.78 µM	7 ×10⁻⁶ cm/s	2280 nM	–	–	COc1ccc(/C=C/C(=O)/C=C(O)/C=C/c2ccc(OCc3ccccc3)cc2)cc1	inactive	Non-toxic	Active	Non-toxic	–
8.3 µM	–	390 nM	–	–	O=C(/C=C(O)/C=C/c1ccc(OCc2cc(F)cc(F)c2)cc1)/C=C/c1ccc(OCc2cc(F)cc(F)c2)cc1	–	–	–	–	–
5.56 µM	–	6040 nM	–	–	O=C(/C=C/c1ccc(OCc2ccccc2)cc1)CC(=O)/C=C/c1ccc(OCc2ccccc2)cc1	–	–	–	–	–
2.49 µM	3.6 ×10⁻⁶ cm/s	40 nM	–	–	O=C(/C=C(O)/C=C/c1ccc(OCc2ccccc2)cc1)/C=C/c1ccc(OCc2ccccc2)cc1	Active	–	Active	Non-toxic	–
0.9 µM	7.7 ×10⁻⁶ cm/s	970 nM	–	–	COc1cc(/C=C/C(O)=C/C(=O)/C=C/c2ccc(OCc3ccccc3)cc2)ccc1O	Active	–	Active	Non-toxic	–
2.09 µM	8.2 ×10⁻⁶ cm/s	140 nM	–	–	COc1cc(/C=C/C(O)=C/C(=O)/C=C/c2ccc(C)cc2)ccc1O	inactive	–	Active	Non-toxic	–
2.01 µM	–	2690 nM	–	–	O=C(/C=C(O)/C=C/c1ccc(OCc2ccccc2)cc1)/C=C/c1ccc(O)cc1	inactive	–	Active	Toxic	–

Source: ChEMBL document CHEMBL3763057 (J Med Chem, 2016)
